# Experimental data as given in US20250041286A1, “CANCER TREATMENT USING KETOTIFEN IN COMBINATION WITH A CHECKPOINT INHIBITOR” (Materia Therapeutics Inc., priority 2021, published 2025).
# How the values were obtained:
# MCA205 cells = test: Re-challenge of long-term survivors with MCA205 cells; format: in vivo, mouse; details: re-challenge with 2.5×10^5 MCA205 cells s.c., 80 days after resection of primary tumors
# From the text: Since doxorubicin has potential to establish favorable immunogenic conditions within the TME, which could affect the efficacy of immunotherapy, it was investigated if this immune response is preserved against rechallenge of long-term survivors with the same cell line. Mice were considered long-term survivors if no tumor was detected 80 days after surgical resection of MCA205 primary tumors. Five long-term survivors from each treatment group were further re-challenged with 2.5×10^5 MCA205 cells injected subcutaneously into the flank region. Cells were prepared in 50 μl of PBS. Naïve mice were implanted in parallel as controls.
# MCA205 tumors = test: Ketotifen pretreatment with doxorubicin / anti-PD-L1, tumor growth; format: in vivo, mouse; details: anti-PD-L1 10 mg/kg, doxorubicin 5 mg/kg i.p. days 7, 10, 13, ketotifen 10 mg/kg daily
# From the text: Daily ketotifen continued until completion of doxorubicin-anti-PD-L1 combination treatment.
# murine MC/9 MCs = test: MC/9 - NIH3T3 transwell co-culture, mast cell degranulation by β-hexosaminidase release; format: cell-based; details: 24 hours treatment, then 30 minute sensitization with C48/80
# Method: (§1) Given that both MCs and fibroblasts are present in the TME, the consequences of MC activation on myofibroblasts was explored using a co-culture assay in which murine MC/9 MCs and NIH3T3 myofibroblasts were separated by a transwell chamber with micropores that only allowed chemical communication (FIG. 13A). In this system, degranulation efficiency was determined by measuring the concentration of β-hexosaminidase (β-hex) in the supernatant. MC degranulation was induced through exposure to compound 48/80 (C48/80), which binds to the MRGPRB2 receptor (the orthologue of the human G-protein-coupled receptor MRGPRX2). […] Co-cultures treated with a vehicle control and Triton X-100 were used as internal assay control to evaluate background and maximum β-hex release, respectively. Transforming growth factor (TGF)-β1 was used as a fibroblast activator due to its capacity to induce a myofibroblast phenotype of the NIH3T3 cells. MC/9 cells were cultivated with NIH3T3 cells for 24 hours and then treated with either ketotifen or TGFβ for additional 24 hours in low serum medium, followed by a 30 minute sensitization with C48/80.
# NIH3T3 cells = test: Myofibroblast differentiation in co-culture, αSMA and collagen I immunofluorescence; format: cell-based, murine
# Method: as §1
# To further explore the MC-fibroblast interaction, the differentiation process of NIH3T3 cells in the co-culture system was monitored by assaying levels of αSMA and collagen I, which are two markers of the myofibroblast phenotype, by immunofluorescence staining (FIG. 13C, FIG. 13D, and FIG. 13E).
Molecule,tumor development after re-challenge (mice out of five long-term survivors per group) (MCA205 cells),"tumor growth (relative growth, tumor mass day 16) (MCA205 tumors)",MC degranulation (β-hex release) (murine MC/9 MCs),αSMA and collagen I protein expression (NIH3T3 cells; TGFβ alone),αSMA and collagen I protein expression (NIH3T3 cells; TGFβ together with activated MCs)
COc1cccc2c1C(=O)c1c(O)c3c(c(O)c1C2=O)C[C@@](O)(C(=O)CO)C[C@@H]3O[C@H]1C[C@H](N)[C@H](O)[C@H](C)O1 [doxorubicin],four mice,Neither anti-PD-L1 nor doxorubicin monotherapies affected tumor growth,–,–,–
TGFβ: fibroblast activator inducing a myofibroblast phenotype of the NIH3T3 cells,–,–,did not affect MC degranulation,no change was observed,significant increase
